Converted amounts (≈) assume the structure as drawn. Read-outs that look alike come from different tables or passages of the source.
Assays:
Format in all cases: cell-based
[1] = test system: Aspergillus brasiliensis (ATCC 16404); test: Microtiter plate minimum inhibitory concentration (MIC) test, A. brasiliensis; details: for MIC: Aspergillus brasiliensis, ATCC16404, 168 h, read-out: MIC alone
Procedure: (§1) Sample stock solution of Penflufen was prepared in DMSO at 20000 ppm (active ingredient).
(§2) Microorganisms grown on agar slants were harvested using standard microbiological techniques. The numbers of mold spores were determined by counted using a hemocytometer, and then inoculum was prepared in the media shown in Table 2. Then, 190 ul of inoculum was added into each well containing 10 ul of the serially diluted sample solution.

[2] = test system: Aureobasidium pullulans (ATCC 9348); test: Microtiter plate MIC test, A. pullulans; details: for MIC: Aureobasidium pullulans, ATCC9348, 168 h, read-out: MIC alone
Procedure: as §1, §2

[3] = test system: Trichoderma virens (ATCC 9645); test: Microtiter plate MIC test, T. virens; details: for MIC: Trichoderma virens, ATCC9645, 168 h, read-out: MIC alone
Procedure: as §1, §2

[4] = test system: Aspergillus niger (ATCC 9642); test: Microtiter plate MIC test, A. niger; details: for MIC: Aspergillus niger, ATCC9642, 168 h, read-out: MIC alone
Procedure: as §1, §2

P. pinophilum = test: Microtiter plate MIC test, P. pinophilum; details: for MIC: 168 h, read-out: MIC alone
Procedure: as §1, §2

Antrodia sinuosa = test: Agar dilution MIC against decay fungus Antrodia sinuosa; details: for MIC: Adustoporia sinuosa, 216 h, read-out: Antrodia sinuosa MIC (ppm)
Procedure: (§3) Total 17 samples, including Penflufen, 8 Penflufen-potentiator blends and 8 potentiators were submitted for evaluation.
(§4) Decay fungi Antrodia sinuosa and Coniophora puteana were obtained from GTS microbiology lab fungal collection and cultured on Potato Dextrose Agar at 28° C.
(§5) The samples were diluted to test at a starting concentration of 1,000 ppm active based on the concentration of Penflufen in the samples. Samples were serially diluted into the molten Potato Dextrose Agar before the agar was solidified. The agar plugs with active fungal hyphae growth were inoculated onto the prepared agar surface.
(§6) All concentrations reported are in ppm.

Coniophora puteana = test: Agar dilution MIC against decay fungus Coniophora puteana; details: for MIC: Coniophora puteana, 216 h, read-out: Coniophora puteana MIC (ppm)
Procedure: as §3, §4, §5, §6

[5] = substance alone, A. brasiliensis, 28° C., 7 days, ppm
[6] = substance alone, A. pullulans, 28° C., 7 days, ppm
[7] = substance alone, T. virens, 28° C., 7 days, ppm
[8] = substance alone, A. niger, 28° C., 7 days, ppm
[9] = substance alone, P. pinophilum, 28° C., 7 days, ppm
[10] = active or potentiator alone, Potato Dextrose Agar, 28° C., 9 days, complete inhibition of hyphae growth

Compound | MIC alone [1, 5] [ppm] | MIC alone [2, 6] [ppm] | MIC alone [3, 7] [ppm] | MIC alone [4, 8] [ppm] | MIC alone (P. pinophilum; [9]) [ppm] | Antrodia sinuosa MIC (ppm) (Antrodia sinuosa; [10]) | Coniophora puteana MIC (ppm) (Coniophora puteana; [10]) | other results
Cc1ccc(S(N)(=O)=O)cc1 | 5000 | 5000 | 5000 | 5000 | 5000 | – | – | –
CCCCCCCCCCCCN(C)C [Barlene 12, N,N-Dimethyl-N-dodecylamine] | – | – | – | – | – | – | – | MIC [1]: 31.2 µg/mL (≈ 146 µM); MIC [2]: 7.81 µg/mL (≈ 36.6 µM); MIC [3]: 7.81 µg/mL (≈ 36.6 µM); MIC [4]: 250 µg/mL (≈ 1170 µM); MIC (P. pinophilum): 7.81 µg/mL (≈ 36.6 µM); MIC (Antrodia sinuosa): 250 µg/mL; MIC (Coniophora puteana): 500 µg/mL
CC(=O)c1c([O-])cc(C)oc1=O.CC(=O)c1c([O-])cc(C)oc1=O.[Zn+2] [DHA Zn, Dehydroacetic acid zinc salt] | 500 | 1000 | 250 | 500 | >1000 | 125 | 125 | –
CCCCCCCC/C=C\CCCCCCCCN [Oleylamine, (Z)-Octa-9-decenylamine] | 2.5 | 0.31 | 0.625 | 1.25 | 1.25 | 50.0 | 50.0 | –
Cc1nn(C)c(F)c1C(=O)Nc1ccccc1C(C)CC(C)C (centres unmarked) [Penflufen, N-[2-(1,3-dimethylbutyl)phenyl]-5-fluoro-1,3-dimethyl-1H-pyrazole-4-carboxamide, reference compound] | – | – | – | – | – | – | – | MIC [1, 5]: 15.7 µg/mL (≈ 49.3 µM); MIC [2, 6]: 500 µg/mL (≈ 1580 µM); MIC [3, 7]: > 1000 µg/mL; MIC [4, 8]: 7.81 µg/mL (≈ 24.6 µM); MIC (P. pinophilum; [9]): > 1000 µg/mL; MIC (Antrodia sinuosa; [10]): 62.5 µg/mL; MIC (Coniophora puteana; [10]): 125 µg/mL
O=C([O-])c1ccccc1.[Na+] [Sodium benzoate] | – | – | – | – | – | 1250 | 313 | –
Isononoic Acid | 1250 | 625 | 625 | 625 | 625 | 313 | 156 | –
Tris(2-hydroxyethyl)-N-tallowalkyl-1,3-diaminopropane [Ethoduomeen] | <4.88 | 9.76 | <4.88 | <4.88 | <4.88 | 625 | 2500 | –
cocoamine oxide [Barlox 12] | 62.5 | 15.62 | 125 | 15.62 | 62.5 | 62.5 | 250 | –

From patent US10829648B2, “Succinate dehydrogenase inhibitor containing compositions” (priority 2012, dated 2020)
